As usually defined, the IC50 is the concentration that inhibits the measured activity by half. The low end stands for higher potency, the high end for lower potency.

In US9492460B2, “Carbazole compounds useful as bromodomain inhibitors” (Bristol-Myers Squibb Company, priority 2013, dated 2016) one finds IC50 data, which are given here for 41 compounds.

For the assay, the target named is T1, bromodomain BRD4 (44-168), BRD4 (333-460), and BRD4 (1-477 or 44-460) (Homo sapiens, UniProt O60885).
T1 construct: BRD4(44-168), BRD4(333-460), BRD4(44-460), BRD4(1-477), O60885-1; fused on or other part: N-terminal BirA biotinylation motif, biotinylated; The TVMV-cleavable His6 tag is removed, except in some BRD4(44-460) runs detected with anti-His terbium cryptate
Kind of assay: Time Resolved Fluorescence Resonance Energy Transfer (TR-FRET) binding assay. As to conditions: one of the FRET assays described.

`COc1ccc2c(c1)c1c(C(N)=O)cc(-c3c(C)noc3C)cc1n2Cc1ccccc1` [Example 177, 9-benzyl-2-(3,5-dimethyl-4-isoxazolyl)-6-methoxy-9H-carbazole-4-carboxamide] came in with an IC50 of less than 50 nM.

Regarding `CNc1ccc2c(c1)c1c(C(N)=O)cc(-c3c(C)noc3C)cc1n2Cc1ccccc1` [Example 130, 9-Benzyl-2-(3,5-dimethyl-4-isoxazolyl)-6-(methylamino)-9H-carbazole-4-carboxamide], the concentration for half-maximal inhibition (IC50) is less than 50 nM.

Regarding `Cc1noc(C)c1-c1cc(C(N)=O)c2c3cc(C(=O)N4C(C)(C)CC(O)CC4(C)C)ccc3n(Cc3ccccc3)c2c1` [Example 63], the IC50 is less than 50 nM.

Compound `Cc1noc(C)c1-c1cc(C(N)=O)c2c3cc(NC(=O)C4CCCC4)ccc3n(Cc3ccccc3)c2c1` [Example 149, 9-benzyl-6-((cyclopentylcarbonyl)amino)-2-(3,5-dimethyl-4-isoxazolyl)-9H-carbazole-4-carboxamide] had an IC50 of less than 50 nM.

In turn, `Cc1noc(C)c1-c1cc(C(N)=O)c2c3cc(C(=O)N4CC(F)C4)ccc3n(Cc3ccc(F)cc3)c2c1` [Example 93] registered a half-inhibitory concentration (IC50) of less than 50 nM.

`Cc1noc(C)c1-c1cc(C(N)=O)c2c3cc(C(=O)N4CCOC(C)C4)ccc3n(Cc3ccccc3)c2c1` (centres unmarked) [Example 55]: the concentration for half-maximal inhibition (IC50) is less than 50 nM.

Regarding `Cc1noc(C)c1-c1cc(C(N)=O)c2c3cc(NCC(F)F)ccc3n(Cc3ccccc3)c2c1` [Example 139, 9-benzyl-6-((2,2-difluoroethyl)amino)-2-(3,5-dimethyl-4-isoxazolyl)-9H-carbazole-4-carboxamide], the IC50 is less than 50 nM.

Take `CNC(=O)c1cc(-c2c(C)noc2C)cc2c1c1cc(C(=O)N3CC(F)C3)ccc1n2Cc1ccc(Cl)c(F)c1` [Example 109]: the IC50 is less than 50 nM.

On to `Cc1noc(C)c1-c1ccc2c3cc(C(=O)N4CC(C)OC(C)C4)ccc3n(CC(C)C)c2c1` (centres unmarked) [Example 4], for which the half-maximal inhibitory concentration (IC50) was less than 500 nM.

`Cc1noc(C)c1-c1cc(C(N)=O)c2c3cc(C(=O)N4CC(C)OC(C)C4)ccc3n(Cc3ccccc3C#N)c2c1` (centres unmarked) [Example 43] came in with a half-inhibitory concentration (IC50) of less than 50 nM.

With `Cc1noc(C)c1-c1cc(C(N)=O)c2c3cc(C(=O)N4CC(C)OC(C)C4)ccc3n(Cc3cc(F)ccc3F)c2c1` (centres unmarked) [Example 42], the IC50 was less than 50 nM.

Compound `Cc1noc(C)c1-c1cc(C(N)=O)c2c(c1)[nH]c1ccc(N3CCCOC3=O)cc12` [Example 150, 2-(3,5-dimethyl-4-isoxazolyl)-6-(2-oxo-1,3-oxazinan-3-yl)-9H-carbazole-4-carboxamide] gave an IC50 of less than 500 nM.

`COc1ccc2c(c1)c1c(C(N)=O)cc(-c3c(C)noc3C)cc1n2C(C)c1ccccc1` (centres unmarked) [Example 176, 2-(3,5-dimethyl-4-isoxazolyl)-6-methoxy-9-(1-phenylethyl)-9H-carbazole-4-carboxamide]: the half-maximal inhibitory concentration (IC50) was less than 50 nM.

As for `CCNC(=O)c1cc(-c2c(C)noc2C)cc2c1c1cc(N3CCCOC3=O)ccc1n2Cc1ccccc1` [Example 165, 9-benzyl-2-(3,5-dimethyl-4-isoxazolyl)-N-ethyl-6-(2-oxo-1,3-oxazinan-3-yl)-9H-carbazole-4-carboxamide], the half-maximal inhibitory concentration (IC50) is less than 500 nM.

Compound `CNC(=O)c1cc(-c2c(C)noc2C)cc2c1c1cc(C(=O)N3CC(F)C3)ccc1n2Cc1ccc(F)cc1` [Example 103] displayed a concentration for half-maximal inhibition (IC50) of less than 50 nM.

`Cc1noc(C)c1-c1cc(C(N)=O)c2c3cc(C(=O)N4CCCCC4C)ccc3n(Cc3ccccc3)c2c1` (centres unmarked) [Example 73] had an IC50 of less than 50 nM.

`CNC(=O)c1cc(-c2c(C)noc2C)cc2c1c1cc(NC)ccc1n2Cc1ccccc1` [Example 133, 9-benzyl-2-(3,5-dimethyl-4-isoxazolyl)-N-methyl-6-(methylamino)-9H-carbazole-4-carboxamide] returned an IC50 of less than 50 nM.

Compound `Cc1noc(C)c1-c1cc(C(N)=O)c2c3cc(C(=O)N4CC(C)OC(C)C4)ccc3n(Cc3ccncn3)c2c1` (centres unmarked) [Example 38] gave a 50% inhibitory concentration (IC50) of less than 500 nM.

On to `CNC(=O)c1cc(-c2c(C)noc2C)cc2[nH]c3ccc(N4CCCOC4=O)cc3c12` [Example 168, 2-(3,5-dimethyl-4-isoxazolyl)-N-methyl-6-(2-oxo-1,3-oxazinan-3-yl)-9H-carbazole-4-carboxamide], for which the IC50 was less than 500 nM.

For `Cc1noc(C)c1-c1cc(C(N)=O)c2c3cc(N4CCCOC4=O)ccc3n(Cc3ccccc3)c2c1` [Example 156, 9-benzyl-2-(3,5-dimethyl-4-isoxazolyl)-6-(2-oxo-1,3-oxazinan-3-yl)-9H-carbazole-4-carboxamide], the concentration for half-maximal inhibition (IC50) is less than 50 nM.

In turn, `Cc1noc(C)c1-c1cc(C(N)=O)c2c3cc(C(=O)N(C)C)ccc3n(Cc3ccccc3)c2c1` [Example 48] had a half-inhibitory concentration (IC50) of less than 50 nM.

Regarding `Cc1noc(C)c1-c1cc(C(N)=O)c2c3cc(N)ccc3n(Cc3ccccc3)c2c1` [Example 135, 6-amino-9-benzyl-2-(3,5-dimethyl-4-isoxazolyl)-9H-carbazole-4-carboxamide], the IC50 was less than 50 nM.

For the compound `Cc1noc(C)c1-c1cc(C(N)=O)c2c3cc(C(=O)NCCN4CCOCC4)ccc3n(Cc3ccccc3)c2c1` [Example 76], the IC50 was less than 50 nM.

`CNC(=O)c1cc(-c2c(C)noc2C)cc2c1c1cc(C(=O)N3CC(F)(F)C3)ccc1n2Cc1ccc(Cl)cc1` [Example 100, 9-(4-chlorobenzyl)-6-(3,3-difluoroazetidine-1-carbonyl)-2-(3,5-dimethylisoxazol-4-yl)-N-methyl-9H-carbazole-4-carboxamide] had an IC50 of less than 500 nM.

Turning to `Cc1noc(C)c1-c1cc(C(N)=O)c2c3cc(N4CCOC4=O)ccc3n(Cc3ccccc3)c2c1` [Example 161, 9-benzyl-2-(3,5-dimethyl-4-isoxazolyl)-6-(2-oxo-1,3-oxazolidin-3-yl)-9H-carbazole-4-carboxamide], the IC50 is less than 50 nM.

Consider `Cc1noc(C)c1-c1ccc2c3cc(C(=O)N4CC(C)OC(C)C4)ccc3n(Cc3cccc(F)c3)c2c1` (centres unmarked) [Example 17], for which the IC50 is less than 500 nM.

As to `Cc1noc(C)c1-c1cc(C(N)=O)c2c3ccc(C(C)(C)O)cc3n(C[C@@]3(F)C[C@@H]4CC[C@H]3O4)c2c1` (relative stereo) [Example 225, rel-2-(dimethyl-1,2-oxazol-4-yl)-9-{[(1R,2S,4S)-2-fluoro-7-oxabicyclo[2.2.1]heptan-2-yl]methyl}-7-(2-hydroxypropan-2-yl)-9H-carbazole-4-carboxamide], the 50% inhibitory concentration (IC50) was less than 50 nM.

The compound `Cc1noc(C)c1-c1cc(C(=O)NCC(C)C)c2c3cc(C(=O)N4CC(F)C4)ccc3n(Cc3ccc(F)cc3)c2c1` [Example 128, 2-(3,5-dimethyl-4-isoxazolyl)-6-((3-fluoro-1-azetidinyl)carbonyl)-9-(4-fluorobenzyl)-N-isobutyl-9H-carbazole-4-carboxamide] showed an IC50 of less than 500 nM.

In turn, `Cc1nnn(C)c1-c1cc(C(N)=O)c2c3ccc(C(C)(C)O)cc3n(C(c3ccccc3)C3CCOCC3)c2c1` (single isomer, unassigned) [Example 232, 2-(1,4-Dimethyl-1H-1,2,3-triazol-5-yl)-7-(2-hydroxypropan-2-yl)-9-(phenyl(tetrahydro-2H-pyran-4-yl)methyl)-9H-carbazole-4-carboxamide] registered a half-maximal inhibitory concentration (IC50) of less than 50 nM.

On to `Cc1noc(C)c1-c1cc(C(N)=O)c2c3cc(C(=O)N4CC(C)OC(C)C4)ccc3n(Cc3ccc(Cl)cc3)c2c1` (centres unmarked) [Example 35], for which the IC50 is less than 50 nM.

On to `Cc1noc(C)c1-c1cc(C(N)=O)c2c3cc(C(=O)N4CC(F)C4)ccc3n(Cc3ccc(Cl)cc3F)c2c1` [Example 87], for which the half-inhibitory concentration (IC50) was less than 50 nM.

Compound `Cc1csc(Cn2c3ccc(C(=O)N4CC(C)OC(C)C4)cc3c3c(C(N)=O)cc(-c4c(C)noc4C)cc32)n1` (centres unmarked) [Example 28] had a concentration for half-maximal inhibition (IC50) of less than 50 nM.

As to `Cc1noc(C)c1-c1ccc2c3cc(C(=O)N4CC(C)OC(C)C4)ccc3n(Cc3ccccc3F)c2c1` (centres unmarked) [Example 16], the IC50 is less than 7500 nM.

In turn, `Cc1noc(C)c1-c1cc(C(=O)N2CC(F)C2)c2c3cc(C(=O)N4CC(F)C4)ccc3n(Cc3ccc(F)cc3)c2c1` [Example 129, 2-(3,5-dimethyl-4-isoxazolyl)-4,6-bis((3-fluoro-1-azetidinyl)carbonyl)-9-(4-fluorobenzyl)-9H-carbazole] yielded an IC50 of less than 500 nM.

`Cc1noc(C)c1-c1cc(C(N)=O)c2c3cc(N4CCCOC4=O)ccc3n(Cc3ccc(F)cc3)c2c1` [Example 151, 2-(3,5-dimethyl-4-isoxazolyl)-9-(4-fluorobenzyl)-6-(2-oxo-1,3-oxazinan-3-yl)-9H-carbazole-4-carboxamide] yielded an IC50 of less than 50 nM.

Turning to `Cc1noc(C)c1-c1cc(C(N)=O)c2c3cc(C(=O)N4CCO[C@@H](C)C4)ccc3n(Cc3ccccc3)c2c1` [Example 57], the IC50 was less than 50 nM.

`CNC(=O)c1cc(-c2c(C)noc2C)cc2c1c1cc(N3CCCOC3=O)ccc1n2Cc1ccccc1` [Example 169, 9-benzyl-2-(3,5-dimethyl-4-isoxazolyl)-N-methyl-6-(2-oxo-1,3-oxazinan-3-yl)-9H-carbazole-4-carboxamide] had a half-maximal inhibitory concentration (IC50) of less than 50 nM.

As for `Cc1noc(C)c1-c1cc(C(N)=O)c2c3cc(N4CCOC4=O)ccc3n(Cc3ccc(Cl)cc3)c2c1` [Example 162, 9-(4-chlorobenzyl)-2-(3,5-dimethyl-4-isoxazolyl)-6-(2-oxo-1,3-oxazolidin-3-yl)-9H-carbazole-4-carboxamide], the IC50 is less than 50 nM.

As to `Cc1noc(C)c1-c1cc(C(N)=O)c2c3cc(C(=O)N4CCC4)ccc3n(Cc3ccccc3)c2c1` [Example 71], the IC50 is less than 50 nM.

`CNC(=O)c1cc(-c2c(C)noc2C)cc2[nH]c3ccc(C(=O)N4CC(F)(F)C4)cc3c12` [Example 99, 6-((3,3-difluoro-1-azetidinyl)carbonyl)-2-(3,5-dimethyl-4-isoxazolyl)-N-methyl-9H-carbazole-4-carboxamide] yielded a half-maximal inhibitory concentration (IC50) of less than 500 nM.

For the compound `Cc1noc(C)c1-c1cc(C(N)=O)c2c3cc(C(=O)N4C[C@@H](C)O[C@@H](C)C4)ccc3n(CC3CCC3)c2c1` [Example 26, 9-(cyclobutylmethyl)-2-(3,5-dimethyl-4-isoxazolyl)-6-((cis-2,6-dimethyl-4-morpholinyl)carbonyl)-9H-carbazole-4-carboxamide], the 50% inhibitory concentration (IC50) is less than 50 nM.
